Laboratory results from patent publication US20230398130A1, “METHODS AND COMPOSITIONS FOR DIFFERENTIATING STEM CELLS” (Massachusetts Institute of Technology, priority 2020, published 2023).

Tests used:
[1] = test system: ISC-enriched organoids; assay: Primary screen, 384-well 2.5-D organoid differentiation (ENR+CD, 6 days): carbachol-induced lysozyme secretion (LYZ.S); type: cell-based, murine; conditions: primary screen; for Dose.FC.LYZ.S: FC vs plate median; for Z.LYZ.S: standard z score; for SSMD.LYZ.S: strictly standardized mean difference
From the text: (§1) High-throughput screening.

[2] = test system: ISC-enriched organoids; assay: Primary screen, 384-well 2.5-D organoid differentiation (ENR+CD, 6 days, Target Selective Inhibitor Library, vs whole-plate median): ATP (CellTiter-Glo 3D, CTG); conditions: primary screen; for Dose.FC.CTG: FC vs plate median; for SSMD.CTG: strictly standardized mean difference
[3] = test system: ISC-enriched organoids; assay: Primary screen, 384-well 2.5-D organoid differentiation (ENR+CD, 6 days): basal lysozyme secretion (LYZ.NS); type: cell-based, murine; conditions: primary screen; for Dose.FC.LYZ.NS: FC vs plate median; for SSMD.LYZ.NS: strictly standardized mean difference
From the text: as §1

[4] = dose 0.08 uM, standard z score of FC
[5] = dose 0.40 uM, standard z score of FC
[6] = dose 2.00 uM, standard z score of FC
[7] = dose 10.00 uM, standard z score of FC
[8] = 1st of the 4 dose lines of the treatment (dose not given)
[9] = 2nd of the 4 dose lines of the treatment (dose not given)
[10] = 3rd of the 4 dose lines of the treatment (dose not given)
[11] = 4th of the 4 dose lines of the treatment (dose not given)
[12] = Dose 10.00 uM, standard z score

What does the source list for `O=C(/C=C/c1cccc(S(=O)(=O)Nc2ccccc2)c1)NO` [Belinostat (PXD101)]?
Dose.FC.LYZ.S ([1]; dose 0.08 uM, ENR+CD 6 days): −0.059 log 2 fold change; Dose.FC.LYZ.S ([1]; dose 0.40 uM, ENR+CD 6 days): 0.042 log 2 fold change; Dose.FC.LYZ.S ([1]; dose 2.00 uM, ENR+CD 6 days): −0.264 log 2 fold change; Dose.FC.LYZ.S ([1]; dose 10.00 uM, ENR+CD 6 days): −0.327 log 2 fold change; Dose.FC.CTG ([2]; dose 0.08 uM, ENR+CD 6 days): −0.227 log 2 fold change; Z.CTG [2, 4]: −0.543; Dose.FC.CTG ([2]; dose 0.40 uM, ENR+CD 6 days): −0.055 log 2 fold change; Z.CTG [2, 5]: −0.133; Dose.FC.CTG ([2]; dose 2.00 uM, ENR+CD 6 days): −0.782 log 2 fold change; Z.CTG [2, 6]: −1.868; Dose.FC.CTG ([2]; dose 10.00 uM, ENR+CD 6 days): −1.122 log 2 fold change; Z.CTG [2, 7]: −2.679; Dose.FC.LYZ.NS ([3]; dose 0.08 uM, ENR+CD 6 days): 0.008 log 2 fold change; Z.LYZ.NS [3, 4]: 0.067; Dose.FC.LYZ.NS ([3]; dose 0.40 uM, ENR+CD 6 days): 0.129 log 2 fold change; Z.LYZ.NS [3, 5]: 1.125; Dose.FC.LYZ.NS ([3]; dose 2.00 uM, ENR+CD 6 days): −0.173 log 2 fold change; Z.LYZ.NS [3, 6]: −1.510; Dose.FC.LYZ.NS ([3]; dose 10.00 uM, ENR+CD 6 days): −0.196 log 2 fold change; Z.LYZ.NS [3, 7]: −1.709

With `CN(C)Cc1ccc(-c2nc3cccc4c3n2CCNC4=O)cc1` [AG-14361] as the compound, how does the Dose.FC.LYZ.S ([1]; dose 0.08 uM, ENR+CD 6 days) read?
The Dose.FC.LYZ.S was 0.100 log 2 fold change.

And the Dose.FC.LYZ.S ([1]; dose 0.40 uM, ENR+CD 6 days)?
The Dose.FC.LYZ.S was −0.001 log 2 fold change.

And the Dose.FC.LYZ.S ([1]; dose 2.00 uM, ENR+CD 6 days)?
The Dose.FC.LYZ.S was −0.065 log 2 fold change.

And the Dose.FC.LYZ.S ([1]; dose 10.00 uM, ENR+CD 6 days)?
Its Dose.FC.LYZ.S is −0.189 log 2 fold change.

What about the Dose.FC.CTG ([2]; dose 0.08 uM, ENR+CD 6 days) of the same compound?
Its Dose.FC.CTG is −0.012 log 2 fold change.

And the Z.CTG [2, 4]?
The Z.CTG was −0.028.

And the Dose.FC.CTG ([2]; dose 0.40 uM, ENR+CD 6 days)?
Its Dose.FC.CTG is −0.069 log 2 fold change.

What about the Z.CTG [2, 5] of the same compound?
The Z.CTG was −0.165.

What about the Dose.FC.CTG ([2]; dose 2.00 uM, ENR+CD 6 days) of the same compound?
The Dose.FC.CTG was 0.005 log 2 fold change.

What about the Z.CTG [2, 6] of the same compound?
Its Z.CTG is 0.012.

What about the Dose.FC.CTG ([2]; dose 10.00 uM, ENR+CD 6 days) of the same compound?
The Dose.FC.CTG was −0.021 log 2 fold change.

And the Z.CTG [2, 7]?
Its Z.CTG is −0.050.

And the Dose.FC.LYZ.NS ([3]; dose 0.08 uM, ENR+CD 6 days)?
The Dose.FC.LYZ.NS was 0.152 log 2 fold change.

And the Z.LYZ.NS [3, 4]?
The Z.LYZ.NS was 1.324.

And the Dose.FC.LYZ.NS ([3]; dose 0.40 uM, ENR+CD 6 days)?
Its Dose.FC.LYZ.NS is 0.036 log 2 fold change.

And the Z.LYZ.NS [3, 5]?
The Z.LYZ.NS was 0.312.

What about the Dose.FC.LYZ.NS ([3]; dose 2.00 uM, ENR+CD 6 days) of the same compound?
The Dose.FC.LYZ.NS was 0.032 log 2 fold change.

And the Z.LYZ.NS [3, 6]?
Its Z.LYZ.NS is 0.278.

And the Dose.FC.LYZ.NS ([3]; dose 10.00 uM, ENR+CD 6 days)?
Its Dose.FC.LYZ.NS is −0.197 log 2 fold change.

And the Z.LYZ.NS [3, 7]?
The Z.LYZ.NS was −1.713.

How did the Z.LYZ.S [1, 8] turn out when `Nc1nc(OCc2cc(Br)cs2)c2[nH]cnc2n1` [Lomeguatrib] was run?
The Z.LYZ.S was −0.528.

What about the Z.LYZ.S [1, 9] of the same compound?
The Z.LYZ.S was −0.139.

What about the Z.LYZ.S [1, 10] of the same compound?
The Z.LYZ.S was −0.356.

What about the Z.LYZ.S [1, 11] of the same compound?
Its Z.LYZ.S is −0.893.

What about the SSMD.LYZ.S [1, 8] of the same compound?
Its SSMD.LYZ.S is −0.435.

And the SSMD.LYZ.S [1, 9]?
The SSMD.LYZ.S was −0.121.

And the SSMD.LYZ.S [1, 10]?
Its SSMD.LYZ.S is −0.346.

What about the SSMD.LYZ.S [1, 11] of the same compound?
The SSMD.LYZ.S was −0.820.

And the Z.CTG ([2]; Dose 0.08 uM, standard z score)?
The Z.CTG was −1.017.

And the Z.CTG ([2]; Dose 0.40 uM, standard z score)?
The Z.CTG was −0.739.

And the Z.CTG ([2]; Dose 2.00 uM, standard z score)?
The Z.CTG was 0.178.

And the Z.CTG [2, 12]?
Its Z.CTG is −0.192.

And the SSMD.CTG [2, 8]?
The SSMD.CTG was −0.489.

And the SSMD.CTG [2, 9]?
Its SSMD.CTG is −0.422.

What about the SSMD.CTG [2, 10] of the same compound?
Its SSMD.CTG is 0.193.

What about the SSMD.CTG [2, 11] of the same compound?
The SSMD.CTG was −0.190.

What about the SSMD.LYZ.NS [3, 8] of the same compound?
Its SSMD.LYZ.NS is −0.474.

What about the SSMD.LYZ.NS [3, 9] of the same compound?
Its SSMD.LYZ.NS is −0.137.

And the SSMD.LYZ.NS [3, 10]?
Its SSMD.LYZ.NS is −0.189.

What about the SSMD.LYZ.NS [3, 11] of the same compound?
Its SSMD.LYZ.NS is −1.038.

What does the source list for `Cl.Cl.O=S(=O)(NCCNC/C=C/c1ccc(Br)cc1)c1cccc2cnccc12` [H 89 2HCl]?
Dose.FC.LYZ.S ([1]; Dose 0.08 uM): 0.118 log 2 fold change; Dose.FC.LYZ.S ([1]; Dose 0.40 uM): 0.148 log 2 fold change; Dose.FC.LYZ.S ([1]; Dose 2.00 uM): 0.087 log 2 fold change; Dose.FC.LYZ.S ([1]; Dose 10.00 uM): 0.000 log 2 fold change; Z.LYZ.S [1, 8]: 0.764; Z.LYZ.S [1, 9]: 0.955; Z.LYZ.S [1, 10]: 0.565; Z.LYZ.S [1, 11]: −0.001; SSMD.LYZ.S [1, 8]: 0.529; SSMD.LYZ.S [1, 9]: 0.703; SSMD.LYZ.S [1, 10]: 0.329; SSMD.LYZ.S [1, 11]: −0.001; Dose.FC.CTG ([2]; Dose 0.08 uM): 0.350 log 2 fold change; Z.CTG ([2]; Dose 0.08 uM, standard z score): 0.836; Dose.FC.CTG ([2]; Dose 0.40 uM): 0.398 log 2 fold change; Z.CTG ([2]; Dose 0.40 uM, standard z score): 0.950; Dose.FC.CTG ([2]; Dose 2.00 uM): 0.421 log 2 fold change; Z.CTG ([2]; Dose 2.00 uM, standard z score): 1.005; Dose.FC.CTG ([2]; Dose 10.00 uM): 0.385 log 2 fold change; Z.CTG [2, 12]: 0.919; SSMD.CTG [2, 8]: 1.039; SSMD.CTG [2, 9]: 0.952; SSMD.CTG [2, 10]: 0.830; SSMD.CTG [2, 11]: 1.211; Dose.FC.LYZ.NS ([3]; Dose 0.08 uM): 0.140 log 2 fold change; Z.LYZ.NS ([3]; Dose 0.08 uM, standard z score): 1.223; Dose.FC.LYZ.NS ([3]; Dose 0.40 uM): 0.080 log 2 fold change; Z.LYZ.NS ([3]; Dose 0.40 uM, standard z score): 0.695; Dose.FC.LYZ.NS ([3]; Dose 2.00 uM): 0.086 log 2 fold change; Z.LYZ.NS ([3]; Dose 2.00 uM, standard z score): 0.747; Dose.FC.LYZ.NS ([3]; Dose 10.00 uM): 0.132 log 2 fold change; Z.LYZ.NS [3, 12]: 1.151; SSMD.LYZ.NS [3, 8]: 0.995; SSMD.LYZ.NS [3, 9]: 0.816; SSMD.LYZ.NS [3, 10]: 0.521; SSMD.LYZ.NS [3, 11]: 0.374
